Consider 10 molecules from PubChem BioAssay (NCI).

The structures appear in SMILES notation. Where “and” joins values, the source holds several entries; their conditions need not be identical. Equal entries are not always repeated.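 All cell lines were grown in 96-well plates and treated with compound for 48 hours. The concentration for 50% growth inhibition is given as GI50. The concentration for full growth arrest is given as TGI.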 Bounds are passed on as bounds.

Among the test systems are EKVX NSCLC; IGROV1 ovarian; M14 melanoma; MCF7 breast; MDA-MB-231 breast; RXF 393 renal; SK-MEL-28 melanoma; TK-10 renal.
What all share (assay): NCI tumour cell line growth inhibition, 48 h

Take `COc1ccccc1S(=O)(=O)Nc1ccc2c3c(cc(CCC(=O)NCCCCNc4cccc5c4C(=O)N(C4CCC(=O)NC4=O)C5=O)cc13)C(=O)N2C` (stereo not drawn): the GI50 in the assay with EKVX NSCLC was 18.1 µM; in the assay with IGROV1 ovarian, 0.14 µM; with M14 melanoma, 1.11 µM; with MCF7 breast, 0.264 µM; with MDA-MB-231 breast, 0.0351 µM; with RXF 393 renal, 0.862 µM. In addition, the GI50 in the assay on SK-MEL-28 melanoma is 1.08 µM; in the assay with TK-10 renal it was greater than 29.9 µM. Besides, the TGI was greater than 100 µM in the assay on EKVX NSCLC; greater than 100 µM in the assay on IGROV1 ovarian; greater than 100 µM in the assay with M14 melanoma; greater than 100 µM in the assay on MCF7 breast; 0.295 µM with MDA-MB-231 breast; 4.5 µM in the assay with RXF 393 renal. In addition, the TGI in the assay with SK-MEL-28 melanoma and with TK-10 renal was greater than 100 µM each time.

Turning to `COC(=O)Nc1nc2ccccc2[nH]1`, the TGI in the assay on EKVX NSCLC, with IGROV1 ovarian, in the assay with M14 melanoma, with MCF7 breast, in the assay on MDA-MB-231 breast and with RXF 393 renal was greater than 100 µM each time. For the same molecule, the TGI in the assay with SK-MEL-28 melanoma and in the assay on TK-10 renal was greater than 100 µM each time.

Take `CCCCC#Cc1c(I)n(C)c(=O)[nH]c1=O`: the GI50 is 15.7 µM with EKVX NSCLC; 1.55 µM with IGROV1 ovarian; 2.13 µM with M14 melanoma; 9.6 µM in the assay with MCF7 breast; 2.06 µM with MDA-MB-231 breast; 2.6 µM in the assay on RXF 393 renal. Also, the values for the GI50 in the assay with SK-MEL-28 melanoma and with TK-10 renal were 1.75 µM and 4.76 µM, respectively. The TGI in the assay with EKVX NSCLC was found to be 29.1 µM; in the assay with IGROV1 ovarian, 3.04 µM; with M14 melanoma, 4.36 µM; in the assay with MCF7 breast, 25.4 µM; in the assay on MDA-MB-231 breast, 4.27 µM; in the assay with RXF 393 renal, 5.91 µM. Further, the figures for the TGI in the assay with SK-MEL-28 melanoma and in the assay with TK-10 renal were 3.13 µM and 16 µM, respectively.

Regarding `COc1ccc(-c2cncn2-c2cc(OC)c(OC)c(OC)c2)cc1`, the GI50 with EKVX NSCLC was 3.06 µM; in the assay on IGROV1 ovarian it was less than 0.0157 µM; with M14 melanoma, 0.179 µM; in the assay with MDA-MB-231 breast, 0.465 µM; in the assay with RXF 393 renal, 0.448 µM; in the assay with SK-MEL-28 melanoma, 11.3 µM. The GI50 with TK-10 renal is 0.139 µM. For the same molecule, the TGI in the assay with EKVX NSCLC was greater than 100 µM; in the assay on IGROV1 ovarian, 1.53 µM; with M14 melanoma it was 12.7 µM; in the assay with MCF7 breast, greater than 34.8 µM; in the assay on MDA-MB-231 breast, 25.7 µM; with RXF 393 renal, 21.3 µM. Further, the TGI in the assay on SK-MEL-28 melanoma is greater than 100 µM; with TK-10 renal it was 27.1 µM.

With `COC(=O)c1c(-c2cccs2)oc(-c2cccs2)c1C(=O)OC`, the GI50 in the assay on EKVX NSCLC is 56.8 µM; in the assay with IGROV1 ovarian, 36.2 µM; in the assay with M14 melanoma it was 20.3 µM; with MCF7 breast it was 13.2 µM; in the assay on MDA-MB-231 breast, 34 µM; with RXF 393 renal, 31 µM. Also, the GI50 with SK-MEL-28 melanoma was 56.7 µM; in the assay on TK-10 renal, 27.9 µM. Besides, the TGI with EKVX NSCLC was greater than 100 µM; in the assay with IGROV1 ovarian it was greater than 100 µM; with M14 melanoma, 55.2 µM; with MCF7 breast, greater than 100 µM; with MDA-MB-231 breast, greater than 94.5 µM; in the assay on RXF 393 renal, greater than 100 µM. Moreover, the TGI with SK-MEL-28 melanoma was greater than 100 µM; in the assay on TK-10 renal it was 82 µM.

As for `COc1ccc(-c2cc3c(C)nc(N)nc3n(C3CCC(OCCO)CC3)c2=O)cn1` (stereo not drawn), the GI50 in the assay on EKVX NSCLC is 0.0971 µM and 0.0465 µM; in the assay on IGROV1 ovarian, 0.021 µM and 0.0199 µM; with M14 melanoma it was 0.099 µM and 0.0686 µM; in the assay with MCF7 breast, 0.0266 µM and 0.0228 µM; in the assay on MDA-MB-231 breast, 0.0967 µM and 0.144 µM; with RXF 393 renal it was 0.0403 µM and 0.0467 µM. In addition, the GI50 is 0.0517 µM and 0.074 µM in the assay on SK-MEL-28 melanoma; 0.026 µM and 0.0264 µM in the assay on TK-10 renal. Further, the TGI in the assay with EKVX NSCLC was 0.7 µM and 0.396 µM; in the assay with IGROV1 ovarian, 0.0983 µM and 0.092 µM; in the assay on M14 melanoma it was 2.69 µM and 1.05 µM; in the assay with MCF7 breast it was > 10 µM and 1.03 µM; in the assay with MDA-MB-231 breast it was 0.792 µM and 1.13 µM; in the assay with RXF 393 renal, 0.289 µM and 0.309 µM. Further, the TGI in the assay on SK-MEL-28 melanoma is 0.425 µM and 0.604 µM; in the assay with TK-10 renal, 0.235 µM and 0.197 µM.

On to `Cc1ccc(-c2nc(/C=N/Nc3cc(C)nc4ccc(Cl)cc34)c(C)o2)cc1`, for which the GI50 is 1.7 µM with EKVX NSCLC; 1.81 µM in the assay with IGROV1 ovarian; 1.8 µM in the assay with M14 melanoma; 1.63 µM with MCF7 breast; 1.81 µM in the assay with MDA-MB-231 breast; 1.45 µM in the assay with RXF 393 renal. Further, the GI50 in the assay with SK-MEL-28 melanoma is 1.81 µM; in the assay with TK-10 renal, 1.8 µM. Moreover, the TGI amounted to 3.21 µM in the assay on EKVX NSCLC; 3.48 µM in the assay on IGROV1 ovarian; 3.49 µM in the assay on M14 melanoma; 3.2 µM in the assay on MCF7 breast; 3.48 µM with MDA-MB-231 breast; 2.94 µM with RXF 393 renal. In addition, the TGI in the assay on SK-MEL-28 melanoma is 3.29 µM; with TK-10 renal, 3.32 µM.

As for `O=C(/C=C/C=C/c1ccccc1)c1ccco1`, the GI50 was 15.5 µM in the assay with EKVX NSCLC; 18.3 µM in the assay with IGROV1 ovarian; 17.3 µM in the assay with M14 melanoma; 1.24 µM in the assay with MCF7 breast; 22.7 µM in the assay on MDA-MB-231 breast; 9.78 µM with RXF 393 renal. Moreover, the GI50 with SK-MEL-28 melanoma is 17 µM; in the assay on TK-10 renal, 16.9 µM. For the same molecule, the TGI in the assay with EKVX NSCLC stood at 62.1 µM; in the assay with IGROV1 ovarian it was 37.6 µM; in the assay with M14 melanoma, 34.8 µM; in the assay on MCF7 breast, 21.6 µM; with MDA-MB-231 breast, 57.1 µM; with RXF 393 renal it was 24.6 µM. Further, the TGI in the assay with SK-MEL-28 melanoma was 31.6 µM; in the assay with TK-10 renal, 40.1 µM.

For the molecule `O=C(O)/C(Cc1ccnc2ccccc12)=N\O`, the TGI in the assay with EKVX NSCLC, in the assay with IGROV1 ovarian, in the assay with M14 melanoma, in the assay on MCF7 breast, with MDA-MB-231 breast and in the assay with RXF 393 renal was greater than 100 µM in each case. Moreover, the TGI with SK-MEL-28 melanoma and in the assay with TK-10 renal was greater than 100 µM in each case.

As for `CCCc1cc(=O)n2c(C(=O)Nc3ccc(F)cc3)c(C(=O)Nc3ccc(F)cc3)sc2n1`, the GI50 was greater than 160 µM with EKVX NSCLC; 30.3 µM in the assay on IGROV1 ovarian; 23.5 µM in the assay with M14 melanoma; 54.8 µM in the assay on MCF7 breast; 4.8 µM in the assay on MDA-MB-231 breast; 4.41 µM in the assay on RXF 393 renal. In addition, the GI50 was 56.5 µM in the assay with SK-MEL-28 melanoma and 32.3 µM with TK-10 renal. For the same molecule, the TGI with EKVX NSCLC was greater than 160 µM; in the assay on IGROV1 ovarian it was 148 µM; with M14 melanoma, 81 µM; in the assay with MCF7 breast, greater than 160 µM; in the assay with MDA-MB-231 breast, 23.8 µM; in the assay on RXF 393 renal, 13 µM. The figures for the TGI with SK-MEL-28 melanoma and in the assay with TK-10 renal were greater than 160 µM and 74.7 µM, respectively.
